The test system of the assay is Pseudomonas aeruginosa. The assay can be described thus: prevention of microbial growth in cutting oil emulsions (Kutwell 30). The class given is cell-based. To be noted: 3.3% cutting oil emulsion (Kutwell 30), 28° C., read-out: concentration required to prevent microbial growth. The protocol:
In running these tests, two-fold serial dilutions of 6% solutions of the compound in dimethylformamide was added to 3.3% cutting oil emulsions. The emulsions were prepared by diluting with water a commercially available cutting oil concentrate. The emulsions were inoculated with a culture of Pseudomonas aeruginosa and incubated at 28° C. on a rotary shaker. At weekly intervals, the emulsions were examined for bacteria by conventional streakplate methods. The emulsions were then reinoculated with Pseudomonas aeruginosa and reincubated.

[1] abbreviates: 168 h, incubation period 1 week.
The mark [2] stands for this setting: 336 h, incubation period 2 weeks, reinoculated weekly.
Where [3] appears, read: 504 h, incubation period 3 weeks, reinoculated weekly.
The mark [4] stands for this setting: 672 h, incubation period 4 weeks, reinoculated weekly.

Like-named read-outs stand apart in the source and are kept apart here.

For the compound `COc1ccs[n+]1C`, the MIC under setting [1] was determined as 32 µg/mL, the MIC under setting [2] was 64 µg/mL, the MIC under setting [3] is 64 µg/mL and the MIC under setting [4] was 64 µg/mL.
On to `C=CCOc1ccs[n+]1C`, for which the MIC runs as follows: under setting [1], below 32 µg/mL; under setting [2], below 32 µg/mL; under setting [3], 32 µg/mL; under setting [4], 32 µg/mL.
For `C[n+]1sccc1OCc1ccccc1`, the MIC reads like this: under setting [1], below 32 µg/mL; under setting [2], below 32 µg/mL; under setting [3], below 32 µg/mL; under setting [4], below 32 µg/mL.
With `COc1c(Br)cs[n+]1C`, the MIC was below 32 µg/mL under setting [1], 32 µg/mL under setting [2], 32 µg/mL under setting [3] and 32 µg/mL under setting [4].

Source of the values: US4262127A, “3-Alkoxy-2-alkylisothiazolium salts and their derivatives” (Givaudan Corporation, priority 1979, dated 1981).
